According to patent US5824647A, “Chemotactic wound healing peptides” (priority 1995, dated 1998):

Key:
[1] = test system: fibroblasts; experiment: Hyaluronate production by fibroblasts; format: cell-based; design: key to FIBROBLAST EFFECTS Hyaluronate: NE = No Effect; conditions: Table II summary
[2] = test system: infant foreskin fibroblasts; experiment: Fibroblast chemotaxis in modified Boyden chambers (incl. checkerboard and deactivation studies); format: cell-based, human; design: key to FIBROBLAST EFFECTS Migration: NE = No Effect
Experimental: Target cells used in in vitro chemotaxis assays were infant foreskin fibroblasts obtained by establishing monolayer cultures from explants of tissue. Cells were maintained in Eagle's minimum essential medium (MEM) supplemented with non-essential amino acids, antibiotics, 50 ug/ml ascorbic acid, and 9% fetal calf serum (FCS). Cells were passaged by trypsinization every 3-5 days.
Infant foreskin fibroblasts were harvested from monolayer culture by gentle trypsinization, washed twice in serum-free Eagles's MEM and adjusted to a final concentration of 250,000 cells/ml. The cell suspension (0.4 ml) was added to the upper compartments of blind well modified Boyden chemotaxis chambers. The peptides of the invention being assayed for chemotactic activity were solubilized in glycylglycine (0.015M) buffered NaCl (0.14M), pH 7.2, hereinafter referred to as GGBS, and diluted 50% with serum-free MEM. Test substances were added to the lower compartment of the chemotaxis chambers. Gelatin-treated polycarbonate filters (8 micron pore size) were interposed between the lowest compartment and the upper cell compartment. Loaded chambers were incubated at 37° C. in a humidified atmosphere containing 5% CO2 for 150 minutes. After incubation, the chambers were disassembled, the filters removed, stained with hematoxylin, and mounted on glass cover slips. Fibroblast chemotaxis was quantitated by counting the number of fibroblasts in 20 oil immersion fields (OIF) that migrated and adhered to the lower surface of each filter. Samples were tested in quadruplicate and results are expressed as mean number of fibroblasts per 20 OIF±standard error of the mean (SEM). Chemotaxis neutralization studies were performed by adding TGF-β1 or fibronectin to the upper cell compartment and testing for effects on fibroblast migration to the TGF-β peptides.
Zigmond-Hirsch checkerboard analysis (Zigmond & Hirsch, J. Exptl. Med. 137:387, 1972) was performed to determine whether the 7-mer peptide 368-374 (Val Tyr Tyr Val Gly Arg Lys) induced chemotaxis of fibroblasts, monocytes and neutrophils.
Deactivation studies were utilized to determine whether the peptides of the invention containing the 7-mer peptide amino acid sequence induced chemotaxis via cellular receptors and mechanisms utilized by intact TGF-β.

[3] = test system: human peripheral blood monocytes; experiment: Monocyte chemotaxis in modified Boyden chambers; format: cell-based; design: key to Monocyte Migration: NE = No Effect
Source text: Human peripheral blood neutrophils and monocytes, isolated from whole blood using standard techniques may also be used in the chemotaxis assays, in a manner similar to infant foreskin fibroblasts, to measure the chemotactic activity of the peptides towards inflammatory cells. Such cells may also be maintained in supplemented MEM as above, to which 5-10% FCS may be added. When using neutrophils and monocytes, instead of fibroblasts, the polycarbonate filters used in the modified Boyden chambers had pore sizes of 2 and 3 microns, respectively. As above, all assays were carried out in quadruplicate.
The following 7-mer peptides (peptides 368-374, corresponding to amino acids 368-374 of human TGF-β1): VYYVGRK (SEQ ID NO. 1), LYYIGKT (SEQ ID NO. 2), LYYVGRT (SEQ ID NO. 3), IYYVGRN (SEQ ID NO. 4) and IYYVGRT (SEQ ID NO. 5) were synthesized by the Merrifield technique, purified by HPLC, and tested at different concentrations in the same assay for their ability to stimulate chemotaxis of human peripheral blood monocytes in vitro modified Boyden chambers.

[4] = test system: infant foreskin fibroblasts; experiment: Collagen production by fibroblasts (modified Peterofsky-Diegelman assay); format: cell-based, human; design: key to FIBROBLAST EFFECTS Collagen: NE = No Effect
Experimental: The peptides of the invention were also found to stimulate collagen production by fibroblasts. Collagen production by fibroblasts in response to the peptides of the present invention was measured utilizing a modified Peterofsky-Diegelman assay. The assay is used to determine whether the peptides of the invention stimulate or inhibit collagen production by fibroblasts.
Low passage (4-12 subpassages) infant foreskin fibroblasts were plated out at a density of 10^5 cells/well in Falcon 3008 multiwell plates in complete maintenance medium containing 10% FCS. After cells reached confluency (72 hr), the medium was changed daily for 3 days, each time being replaced with serum-free maintenance medium containing fresh ascorbic acid. Samples (50 μl) were added to triplicate wells containing 450 μl serum-free MEM supplemented with fresh ascorbic acid and [^3 H]-proline (sp. act. 20 Ci/mmole), but no non-essential amino acids. After an additional 24 hr of culture, supernatants were reacted with protease-free bacterial collagenase to digest all collagen. Similar aliquots of unreacted supernatants and bacterial collagenase-treated supernatants were precipitated with cold 10% trichloroacetic acid (TCA) and were centrifuged for 5 minutes in a Beckman microfuge. Aliquots of the supernatants, after TCA precipitated proteins were pelleted, were placed in vials containing Hydrofluor and then were counted in a scintillation counter. CPM from TCA precipitated supernatants not reacted with bacterial collagenase were subtracted from each culture. The resulting CPM was a reflection of the collagen produced by that culture.
A modified Peterofsky-Diegelmann assay was used to screen peptide samples for their ability to stimulate or inhibit collagen production. Low passage (4-12 subpassages) infant foreskin fibroblast were plated out at a density of 10^5 cells/well of Falcon 3008 multiwell plates in complete maintenance medium containing 10% FCS. After cells reached confluency (72 hr) the medium was changed daily for 3 days, each time being replaced with serum-free maintenance medium containing fresh ascorbic acid. Samples ([…]) were added to triplicate wells containing […] serum free MEM supplemented with fresh ascorbic acid and [^3 H]-proline (sp. act. 20 Ci/mmole), but no non-essential amino acids. After an additional 24 hours of culture, supernatants were reacted with protease-free bacterial collagenase to digest all collagen. Similar aliquots of unreacted supernatants and bacterial collagenase-treated supernatants were precipitated with cold 10% trichloroacetic acid (TCA) and were centrifuged for 5 minutes in a Beckman microfuge. Aliquots of the supernatants, after TCA precipitated proteins were pelleted, were placed in vials containing Hydrofluor and then were counted in a scintillation counter. CPM from TCA precipitated supernatants not reacted with bacterial collagenase were subtracted from each culture. The resulting CPM was a reflection of the collagen produced by that culture.
Collagen production was measured following administration of the various 7-mer peptides 368-374 (SEQ ID NOs. 1-5) to fibroblasts. Peptides […] (SEQ ID NO. 1), LYYIGKT (SEQ ID NO. 2), LYYVGRT (SEQ ID NO. 3), IYYVGRN (SEQ ID NO. 4) and IYYVGRT (SEQ ID NO. 5) were synthesized by the Merrifield technique, purified by HPLC, and tested at different concentrations in the same assay for their ability to stimulate production of collagen in confluent cultures of infant foreskin fibroblasts. Collagen production was measured by incorporation of [^3 H]proline into collagenase-sensitive protein. All samples were tested in triplicate, and values represent the mean of triplicate determinations. Data are expressed as "% stimulation" of collagen production relative to control production in cultures with plain culture medium only added. […]

[5] = test system: fibroblasts; experiment: HLA-DR, fibroblast effects; format: cell-based; design: key: NE = No Effect; conditions: Table II summary
[6] = test system: infant foreskin fibroblasts; experiment: Collagen production by fibroblasts (modified Peterofsky-Diegelman assay); format: cell-based, human; conditions: [3H]proline incorporation into collagenase-sensitive protein; listed as LYYIGRT
[7] = peptide in lower compartment of modified Boyden chamber

280-339: synthetic peptide 280-339, corresponds to the amino terminal portion of TGF-β1 monomer (ALDTNYCFSSTEKNCCVRQLYIDFRKDLGWKWIHEPKGYHANFCLGPCPYIWSLDTQYSK; printed: Ala Leu Asp Thr Asn Tyr Cys Phe Ser Ser Thr Glu Lys Asn Cys Cys Val Arg Gln Leu Tyr Ile Asp Phe Arg Lys Asp Leu Gly Trp Lys Trp Ile His Glu Pro Lys Gly Tyr His Ala Asn Phe Cys Leu Gly Pro Cys Pro Tyr Ile Trp Ser Leu Asp Thr Gln Tyr Ser Lys)
FIBROBLAST EFFECTS Hyaluronate [1]: NE
FIBROBLAST EFFECTS Migration ([2]; Table II summary): NE
Monocyte Migration ([3]; Table II summary): NE
FIBROBLAST EFFECTS Collagen ([4]; Table II summary): NE
FIBROBLAST EFFECTS HLA-DR [5]: NE

LYYIGKT [7-mer peptide 368-374 homolog]
fibroblast chemotaxis / migration (in words) [2, 7]: induced fibroblast chemotaxis at all of the concentration tested
monocyte chemotaxis / migration (in words) [3, 7]: induced monocyte chemotaxis at all of the concentrations tested
collagen production by fibroblasts (in words) ([4]; [3H]proline incorporation into collagenase-sensitive protein): stimulated collagen production to some degree
collagen production by fibroblasts (in words) [6]: stimulated collagen production
